Reference: ChEMBL document CHEMBL3877252, “Fluorescein hydrazones: A series of novel non-intercalative topoisomerase IIα catalytic inhibitors induce G1 arrest and apoptosis in breast and colon cancer cells” (Eur J Med Chem, 2017)
Where a name gives a salt, the structure may show the parent alone.

How the values were obtained:
[1] = target: DNA topoisomerase 2-alpha (Homo sapiens) (UniProt P11388); assay: Inhibition of human topoisomerase-2 alpha assessed as inhibition of relaxation of supercoiled pBR322 plasmid DNA at 100 uM measured after 1 hr by ethidium bromide staining based agarose gel electrophoresis relative to control
Chain of DNA topoisomerase 2-alpha (Homo sapiens) (P11388 whole entry): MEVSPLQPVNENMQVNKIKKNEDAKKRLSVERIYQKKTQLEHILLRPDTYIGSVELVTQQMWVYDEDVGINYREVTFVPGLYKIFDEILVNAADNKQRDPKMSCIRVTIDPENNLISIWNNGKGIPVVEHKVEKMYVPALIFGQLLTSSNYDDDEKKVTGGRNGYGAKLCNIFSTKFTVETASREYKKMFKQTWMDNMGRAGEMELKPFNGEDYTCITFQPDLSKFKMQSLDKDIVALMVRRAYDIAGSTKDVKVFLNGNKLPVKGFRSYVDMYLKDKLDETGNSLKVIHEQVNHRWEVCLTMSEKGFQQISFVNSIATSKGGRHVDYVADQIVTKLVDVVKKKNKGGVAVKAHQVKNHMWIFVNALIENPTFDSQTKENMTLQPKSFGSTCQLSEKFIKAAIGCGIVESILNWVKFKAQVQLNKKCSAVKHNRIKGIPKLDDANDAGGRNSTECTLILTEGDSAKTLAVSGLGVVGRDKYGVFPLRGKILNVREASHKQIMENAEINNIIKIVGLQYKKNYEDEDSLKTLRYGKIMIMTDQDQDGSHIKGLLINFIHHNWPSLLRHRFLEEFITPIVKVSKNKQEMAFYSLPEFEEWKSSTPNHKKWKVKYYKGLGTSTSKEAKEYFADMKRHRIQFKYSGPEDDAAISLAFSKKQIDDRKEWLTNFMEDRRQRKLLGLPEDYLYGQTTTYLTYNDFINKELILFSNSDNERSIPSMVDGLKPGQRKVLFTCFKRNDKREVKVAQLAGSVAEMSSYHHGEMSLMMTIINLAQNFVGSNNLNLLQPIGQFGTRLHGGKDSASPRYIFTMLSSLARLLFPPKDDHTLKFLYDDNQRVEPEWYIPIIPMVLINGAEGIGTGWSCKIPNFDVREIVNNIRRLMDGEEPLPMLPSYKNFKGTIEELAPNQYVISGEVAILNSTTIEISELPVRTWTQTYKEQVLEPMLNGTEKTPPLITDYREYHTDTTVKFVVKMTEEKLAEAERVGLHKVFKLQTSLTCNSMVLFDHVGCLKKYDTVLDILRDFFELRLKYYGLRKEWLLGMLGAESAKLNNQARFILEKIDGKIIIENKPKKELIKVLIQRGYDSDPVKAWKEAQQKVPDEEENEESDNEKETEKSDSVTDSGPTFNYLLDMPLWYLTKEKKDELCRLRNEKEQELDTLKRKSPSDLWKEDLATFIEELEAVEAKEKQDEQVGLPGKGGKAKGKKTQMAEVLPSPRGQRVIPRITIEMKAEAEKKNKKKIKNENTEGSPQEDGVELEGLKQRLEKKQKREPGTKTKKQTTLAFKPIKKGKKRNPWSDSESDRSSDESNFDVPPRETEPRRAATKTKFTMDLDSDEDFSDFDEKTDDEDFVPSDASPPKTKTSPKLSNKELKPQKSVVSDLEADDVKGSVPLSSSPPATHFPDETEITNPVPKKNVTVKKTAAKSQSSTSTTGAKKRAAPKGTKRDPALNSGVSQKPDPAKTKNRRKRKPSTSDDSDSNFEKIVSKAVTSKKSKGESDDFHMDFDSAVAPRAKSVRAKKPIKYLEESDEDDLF

[2] = target: T1, DNA topoisomerase 1 (Homo sapiens) (UniProt P11387); assay: Inhibition of human topoisomerase-1 assessed as inhibition of relaxation of supercoiled pBR322 plasmid DNA at 100 uM measured after 1 hr by ethidium bromide staining based agarose gel electrophoresis relative to control
T1 sequence (whole entry): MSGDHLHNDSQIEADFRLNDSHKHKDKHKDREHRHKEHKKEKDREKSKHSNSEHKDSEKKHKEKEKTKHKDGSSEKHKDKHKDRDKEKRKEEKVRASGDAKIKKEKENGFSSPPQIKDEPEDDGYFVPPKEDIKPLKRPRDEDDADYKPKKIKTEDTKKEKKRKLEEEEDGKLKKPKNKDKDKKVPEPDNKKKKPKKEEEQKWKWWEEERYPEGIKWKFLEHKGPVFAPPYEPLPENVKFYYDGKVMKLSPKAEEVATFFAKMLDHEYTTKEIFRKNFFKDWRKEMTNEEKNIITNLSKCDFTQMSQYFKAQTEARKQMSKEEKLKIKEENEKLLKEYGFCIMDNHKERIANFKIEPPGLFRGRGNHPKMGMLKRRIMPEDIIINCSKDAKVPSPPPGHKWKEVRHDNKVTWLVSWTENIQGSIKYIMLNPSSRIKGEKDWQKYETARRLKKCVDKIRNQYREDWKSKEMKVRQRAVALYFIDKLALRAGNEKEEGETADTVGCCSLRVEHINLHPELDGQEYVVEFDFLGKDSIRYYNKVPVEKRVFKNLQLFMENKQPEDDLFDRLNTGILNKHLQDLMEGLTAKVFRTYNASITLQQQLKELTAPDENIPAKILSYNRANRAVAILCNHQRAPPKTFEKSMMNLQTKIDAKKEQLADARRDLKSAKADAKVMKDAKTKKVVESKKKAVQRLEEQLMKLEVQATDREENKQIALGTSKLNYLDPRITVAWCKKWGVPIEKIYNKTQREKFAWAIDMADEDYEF

[3] = target: T1, DNA topoisomerase 1 (Homo sapiens); assay: Inhibition of human topoisomerase-1 assessed as inhibition of relaxation of supercoiled pBR322 plasmid DNA at 20 uM measured after 1 hr by ethidium bromide staining based agarose gel electrophoresis relative to control
[4] = Antiproliferative activity against human MCF7 cells measured after 72 hrs by CCK8 assay; format: functional, cell-based; conditions: MCF7, 72 h
[5] = Antiproliferative activity against human DU145 cells measured after 72 hrs by CCK8 assay; format: functional, cell-based; conditions: DU-145, 72 h
[6] = Antiproliferative activity against human T47D cells measured after 72 hrs by CCK8 assay; format: functional, cell-based
[7] = Antiproliferative activity against human HCT15 cells measured after 72 hrs by CCK8 assay; format: functional, cell-based; conditions: HCT-15, 72 h
[8] = target: DNA topoisomerase 2-alpha (Homo sapiens) (UniProt P11388); assay: Inhibition of human topoisomerase-2 alpha assessed as inhibition of relaxation of supercoiled pBR322 plasmid DNA at 20 uM measured after 1 hr by ethidium bromide staining based agarose gel electrophoresis relative to control

inhibition [1]	inhibition [2]	inhibition [3]	inhibition [8]	Compound	IC50 [4]	IC50 [5]	IC50 [6]	IC50 [7]
3.9%	87.2%	15.8%	–	CCOc1ccc2c(c1)Oc1cc(OC(=O)c3ccccc3[N+](=O)[O-])ccc1C21c2ccccc2C(=O)N1/N=C/c1ccc(OC)c(OC(=O)c2ccccc2[N+](=O)[O-])c1 (configuration not stated)	–	–	–	–
4.8%	86.6%	1.7%	–	CCOc1ccc2c(c1)Oc1cc(OC(=O)c3ccccc3Cl)ccc1C21c2ccccc2C(=O)N1/N=C/c1ccc(OC)c(OC(=O)c2ccccc2Cl)c1 (configuration not stated)	–	–	–	–
7.8%	55.2%	30%	–	CCOc1ccc2c(c1)Oc1cc(OC(=O)c3ccccc3Cl)ccc1C21c2ccccc2C(=O)N1/N=C/c1ccccc1OC (configuration not stated)	> 50 µM	6.3 µM	> 50 µM	> 50 µM
6.1%	55.4%	0%	–	CCOc1ccc2c(c1)Oc1cc(OC(=O)c3ccccc3)ccc1C21c2ccccc2C(=O)N1/N=C/c1ccccc1[N+](=O)[O-] (configuration not stated)	–	–	–	–
7.5%	16.9%	–	–	CCOc1ccc2c(c1)Oc1cc(OC(=O)c3ccccc3[N+](=O)[O-])ccc1C21c2ccccc2C(=O)N1/N=C/c1ccccc1[N+](=O)[O-] (configuration not stated)	–	–	–	–
8.1%	74%	6.8%	–	CCOc1ccc2c(c1)Oc1cc(OC(=O)c3ccccc3OC)ccc1C21c2ccccc2C(=O)N1/N=C/c1ccccc1OC (configuration not stated)	> 50 µM	> 50 µM	21.4 µM	1.92 µM
25.3%	99.9%	2.5%	–	CCOc1ccc2c(c1)Oc1cc(OC(=O)c3ccccc3)ccc1C21c2ccccc2C(=O)N1/N=C/c1ccc(Cl)cc1Cl (configuration not stated)	–	–	–	–
11.1%	0%	–	–	CCOc1ccc2c(c1)Oc1cc(OC(=O)c3ccccc3Cl)ccc1C21c2ccccc2C(=O)N1/N=C/c1ccccc1OC(=O)c1ccccc1Cl (configuration not stated)	–	–	–	–
–	–	–	–	CC[C@@]1(O)C(=O)OCc2c1cc1n(c2=O)Cc2cc3ccccc3nc2-1 [CAMPTOTHECIN]	4.54 µM	0.38 µM	0.59 µM	0.35 µM
13.1%	30.1%	24.6%	–	CCOc1ccc2c(c1)Oc1cc(OC(=O)c3ccccc3Cl)ccc1C21c2ccccc2C(=O)N1/N=C/c1ccc(OC(=O)c2ccccc2Cl)cc1 (configuration not stated)	–	–	–	–
9%	79.3%	34.4%	–	CCOc1ccc2c(c1)Oc1cc(OC(=O)c3ccccc3[N+](=O)[O-])ccc1C21c2ccccc2C(=O)N1/N=C/c1ccccc1OC (configuration not stated)	–	–	–	–
13.2%	22.7%	–	–	CCOc1ccc2c(c1)Oc1cc(OC(=O)c3ccccc3[N+](=O)[O-])ccc1C21c2ccccc2C(=O)N1/N=C/c1ccc(OC(=O)c2ccccc2[N+](=O)[O-])cc1 (configuration not stated)	–	–	–	–
8.5%	14.4%	–	–	CCOc1ccc2c(c1)Oc1cc(OC(=O)c3ccccc3Cl)ccc1C21c2ccccc2C(=O)N1/N=C/c1ccc(Cl)cc1Cl (configuration not stated)	–	–	–	–
6.5%	4.2%	–	–	CCOc1ccc2c(c1)Oc1cc(OC(=O)c3ccccc3OC)ccc1C21c2ccccc2C(=O)N1/N=C/c1ccc(Cl)cc1 (configuration not stated)	–	–	–	–
11.4%	0%	–	–	CCOc1ccc2c(c1)Oc1cc(OC(=O)c3ccccc3OC)ccc1C21c2ccccc2C(=O)N1/N=C/c1ccc(OC(=O)c2ccccc2OC)cc1 (configuration not stated)	> 50 µM	> 50 µM	44.8 µM	> 50 µM
5.4%	39.8%	0%	–	CCOc1ccc2c(c1)Oc1cc(OC(=O)c3ccccc3Cl)ccc1C21c2ccccc2C(=O)N1/N=C/c1ccccc1[N+](=O)[O-] (configuration not stated)	> 50 µM	> 50 µM	7.75 µM	47 µM
6%	54.6%	3.5%	–	CCOc1ccc2c(c1)Oc1cc(OC(=O)c3ccccc3[N+](=O)[O-])ccc1C21c2ccccc2C(=O)N1/N=C/c1ccc(OC)cc1 (configuration not stated)	–	–	–	–
6.6%	0%	–	–	CCOc1ccc2c(c1)Oc1cc(OC(=O)c3ccccc3[N+](=O)[O-])ccc1C21c2ccccc2C(=O)N1/N=C/c1cccc(OC(=O)c2ccccc2[N+](=O)[O-])c1 (configuration not stated)	–	–	–	–
4.8%	35.6%	17.3%	–	CCOc1ccc2c(c1)Oc1cc(OC(=O)c3ccccc3OC)ccc1C21c2ccccc2C(=O)N1/N=C/c1ccc(OC)cc1 (configuration not stated)	–	–	–	–

inhibition [1]	inhibition [2]	inhibition [3]	inhibition [8]	Compound	IC50 [4]	IC50 [5]	IC50 [6]	IC50 [7]
10.3%	0%	–	–	CCOc1ccc2c(c1)Oc1cc(OC(=O)c3ccccc3OC)ccc1C21c2ccccc2C(=O)N1/N=C/c1ccccc1OC(=O)c1ccccc1OC (configuration not stated)	> 50 µM	> 50 µM	6.22 µM	1.56 µM
7.9%	75.3%	9.2%	–	CCOc1ccc2c(c1)Oc1cc(OC(=O)c3ccccc3)ccc1C21c2ccccc2C(=O)N1/N=C/c1ccc(OC(=O)c2ccccc2)cc1 (configuration not stated)	–	–	–	–
25%	69.2%	10%	–	CCOc1ccc2c(c1)Oc1cc(OC(=O)c3ccccc3OC)ccc1C21c2ccccc2C(=O)N1/N=C/c1ccc(Cl)cc1Cl (configuration not stated)	–	–	–	–
5.4%	44.6%	9.8%	–	CCOc1ccc2c(c1)Oc1cc(OC(=O)c3ccccc3)ccc1C21c2ccccc2C(=O)N1/N=C/c1ccc(OC)cc1 (configuration not stated)	–	–	–	–
2.7%	89.4%	72%	–	CCOc1ccc2c(c1)Oc1cc(OC(=O)c3ccccc3)ccc1C21c2ccccc2C(=O)N1/N=C/c1ccc(OC)c(OC(=O)c2ccccc2)c1 (configuration not stated)	–	–	–	–
5.6%	3.3%	–	–	CCOc1ccc2c(c1)Oc1cc(OC(=O)c3ccccc3Cl)ccc1C21c2ccccc2C(=O)N1/N=C/c1ccc(OC)cc1 (configuration not stated)	–	–	–	–
65%	0.8%	–	3.6%	CCOc1ccc2c(c1)Oc1cc(O)ccc1C21c2ccccc2C(=O)N1/N=C/c1ccc(OC)cc1 (configuration not stated)	–	–	–	–
7%	0%	–	–	CCOc1ccc2c(c1)Oc1cc(OC(=O)c3ccccc3Cl)ccc1C21c2ccccc2C(=O)N1/N=C/c1cccc(OC(=O)c2ccccc2Cl)c1 (configuration not stated)	–	–	–	–
21.5%	73.2%	55.9%	–	CCOc1ccc2c(c1)Oc1cc(OC(=O)c3ccccc3)ccc1C21c2ccccc2C(=O)N1/N=C/c1ccccc1OC(=O)c1ccccc1 (configuration not stated)	> 50 µM	> 50 µM	> 50 µM	8.29 µM
6.2%	19%	–	–	CCOc1ccc2c(c1)Oc1cc(OC(=O)c3ccccc3OC)ccc1C21c2ccccc2C(=O)N1/N=C/c1ccccc1[N+](=O)[O-] (configuration not stated)	–	–	–	–
25.7%	0%	–	–	CCOc1ccc2c(c1)Oc1cc(OC(=O)c3ccccc3[N+](=O)[O-])ccc1C21c2ccccc2C(=O)N1/N=C/c1ccccc1OC(=O)c1ccccc1[N+](=O)[O-] (configuration not stated)	> 50 µM	> 50 µM	5.45 µM	> 50 µM
2.8%	0%	–	–	CCOc1ccc2c(c1)Oc1cc(OC(=O)c3ccccc3OC)ccc1C21c2ccccc2C(=O)N1/N=C/c1cccc(OC(=O)c2ccccc2OC)c1 (configuration not stated)	–	–	–	–
10.8%	12.9%	–	–	CCOc1ccc2c(c1)Oc1cc(OC(=O)c3ccccc3[N+](=O)[O-])ccc1C21c2ccccc2C(=O)N1/N=C/c1ccc(Cl)cc1 (configuration not stated)	–	–	–	–
6.9%	81.3%	48.1%	–	CCOc1ccc2c(c1)Oc1cc(OC(=O)c3ccccc3)ccc1C21c2ccccc2C(=O)N1/N=C/c1ccccc1OC (configuration not stated)	–	–	–	–
7%	9.4%	–	–	CCOc1ccc2c(c1)Oc1cc(OC(=O)c3ccccc3)ccc1C21c2ccccc2C(=O)N1/N=C/c1ccc(Cl)cc1 (configuration not stated)	–	–	–	–
–	–	–	–	COc1cccc2c1C(=O)c1c(O)c3c(c(O)c1C2=O)C[C@@](O)(C(=O)CO)C[C@@H]3O[C@H]1C[C@H](N)[C@H](O)[C@H](C)O1 [DOXORUBICIN HYDROCHLORIDE]	–	1.59 µM	1.5 µM	0.74 µM
6.7%	0%	–	–	CCOc1ccc2c(c1)Oc1cc(OC(=O)c3ccccc3)ccc1C21c2ccccc2C(=O)N1/N=C/c1cccc(OC(=O)c2ccccc2)c1 (configuration not stated)	> 50 µM	> 50 µM	> 50 µM	28.9 µM
4.9%	73.1%	13.9%	–	CCOc1ccc2c(c1)Oc1cc(OC(=O)c3ccccc3OC)ccc1C21c2ccccc2C(=O)N1/N=C/c1ccc(OC)c(OC(=O)c2ccccc2OC)c1 (configuration not stated)	> 50 µM	> 50 µM	23.6 µM	> 50 µM
